US4645760A, “Activated aminoglycosides and aminoglycoside-aminocyclitols pharmaceutical compositions and method of use” (priority 1983, dated 1987)
Structures can show the parent of a compound that is named as a salt.

How the values were obtained:
[1] = system: bacteria (E. coli, Pseudomona aeruginosa); test: bacterial killing by aminoglycosides (gentamicin, kanamycin) with coincubated enzyme; format: cell-based; details: coincubation, extracellular enzyme
[2] = system: hydroxyl free radicals; test: hydroxyl free radical spin-adduct formation by Electron Paramagnetic Resonance; format: biochemical; details: spin traps ntb or DMPO; xanthine/xanthine oxidase, pH 7.8; millimolar drug
Source text: (§1) The auto-oxidation of epinephrine is blocked on a mole-to-mole basis by aminoglycosides and aminoglycoside-aminocyclitols. […] Other colorimetric or chemiluminescence assays for superoxide or hydroxyl radicals which use dyes or other reagents that can develop color selectively in the presence of these radicals can also form the basis of rapid photometric assays for parent aminoglycoside and aminoglycoside-aminocyclitol levels in biological or other aqueous solutions. The degree to which colored products are blocked by the aminoglycoside or the aminoglycoside-aminocyclitol compound would be directly proportional to the concentration of aminoglycosides and aminoglycoside-aminocyclitol compounds. Representative dyes and reactants include the following non-limitative list:
Two spin traps were examined with the same conclusion, nitrosotertiary-butyl (ntb) and 5,5-dimethyl-1-pyrroline-1-oxide. The reaction mixture used to produce hydroxyl radical included 10^-4 M xanthine, 6×10^-8 M xanthine oxidase, 10^-3 EDTA, 10^-4 M spin trap (DMPO or ntb), 8.9×10^-5 M H2 O2, 0.1M potassium phosphate buffer; final pH--7.8. The free radical signals were directly monitored with and without the antibiotics by using the techniques of Electron Paramagnetic Resonance starting 2 minutes after reaction initiation. The scan range=100 Gauss; time constant=0.064 sec; modulation amplitude=1 Gauss; Microwave power=1 Mw; Microwave frequency=9.418 GHz; Field set=3350 Gauss; scan time=20 seconds; modulation frequency=100 KHz. AH =AN =14.9 G.

[3] = system: B. subtilis; test: antibiotic disc diffusion after riboflavin/methionine/UV activation; format: cell-based; details: for potency enhancement of mixture of activated compound and parent compound: 2.8×10^-5 M riboflavin, 0.01M methionine, half hour uv light; for potency after coincubation with irradiated riboflavin vs riboflavin-free parent solution: Example 5, methionine, 365 nm, half hour
Method: The parent compounds in the above table were subjected to two synthetic activation processes according to the present invention. As set forth below, the parent compound was incubated with 2.8×10^-5 M riboflavin and 0.01M methionine (a hydrogen donor) for a half hour in the presence of a uv light.
A solution of […] riboflavin, and a hydrogen donor such as 0.01M methionine, was irradiated with ultraviolet light at 365 nm for a half hour to produce oxygen-free radicals.

[4] = system: epinephrine autoxidation; test: epinephrine autoxidation inhibition assay (oxygen radical reactivity); format: biochemical; details: for IC50: 25° C., 0.1M sodium carbonate, pH 10.2, A320, sulfate form, read-out: (A) Molarity for 50% inhibition of epinephrine autoxidation; for relative molar ratio for 50% inhibition: KM:SM:NM:GM; for B/A Molar ratio (epinephrine molarity / molarity for 50% inhibition): pH 10.2, 25° C.
Method: The oxygen radical reactivity of 4-aminoglycosides KM, streptomycin (SM), neomycin (NM), and gentamicin (GM) was tested using a previously described modification of the commonly used epinephrine autoxidation assay. […] Further studies are required to determine the identification of the reacting active oxygen species (e.g. singlet oxygen, hydroperoxy radicals, superoxide radicals, hydroxyl radicals, or others).
Reactions were performed at 25° C.; in 0.1M sodium carbonate, pH 10.2. Absorbance at 320 nm (A320) as measured with a Varian model 219 spectrophotometer. Antibiotics (Sigma) were used in the sulfate form; the working molecular weight reflects the anhydrous weight of the base. At least five aminoglycoside concentrations, each replicated four times, were used to estimate the 50% epinephrine autoxidation inhibition value. Epinephrine concentrations yielding between 0.23 and 0.27 ΔA320 per minute was the basis for calculating the percent of inhibition. The data were analyzed by linear regression; standard deviations are shown.
When the unactivated aminoglycoside-aminocyclitol compounds are added at pH=10.2 to a cuvette containing epinephrine and 0.1 molar carbonate buffer, the aminoglycosides block the autoxidation of epinephrine to adrenochrome on approximately a mole-to-mole basis. This blockade is monitored spectrophotometrically at 320 nm and is a linear function of drug concentration. Using 9×10^-4 molar epinephrine, the linear region extends from 10^-5 to 10^-3 molar aminoglycoside. The sensitivity of this assay can be extended by lowering the starting epinephrine concentration.

[5] = system: S. aureus (ATCC 25923); test: disc inhibition zone, S. aureus (Table 1); format: cell-based; details: for zone of inhibition at 40 µg/disc: Staphylococcus aureus, ATCC25923, read-out: mm inhibition zone due to 40 μgm/disc, Staphylococcus aureus (printed "coccus aureus"); for mm inhibition zone, S. aureus per log concentration antibiotic: slope, 2000 and 200 ppm
Method: (§2) ^1 9 ml antibiotic #5 agar (Difco), was poured warm into 15 ×
(§3) 100 mm Plastic petri dishes and seeded with test bacteria to a density of
(§4) 2 × 10^6 bacteria per ml (except B. subtilis which was seeded a
(§5) in item 2 below). Q uarter inch sterile filter discs were placed on the
(§6) agars and loaded with 20 microliters of test solutions at concentrations
(§7) of 2000 and 200 ppm. The antibiotic amounts therefore were 40
(§8) micrograms/disc or 4 micrograms/disc. Slopes were based on duplicate
(§9) tests of each substance at these two concentrations. All substances, each
(§10) at two concentrations were tested on each plate. Data were averaged.
(§11) ^3 Concentration of compound 4 MM 0500a1 was adjusted to represent th
(§12) total organic content. That is, 2000 ppm means 2000 parts organic materia
(§13) per million parts water.

[6] = system: Bacillus subtilis; test: disc inhibition zone, Bacillus subtilis (Table 1); format: cell-based; details: for zone of inhibition at 40 µg/disc: Bacillus subtilis, 40 μgm/disc, 30 degrees, 18 hours, read-out: mm inhibition zone due to 40 μgm/disc, organism - Bacillus subtilis; for mm inhibition zone, B. subtilis per log concentration antibiotic: slope by regression
Method: ^2 9 ml antibiotic #5 media (Difco), seeded to a concentration of 0.2
microliters of B. subtilis spores/500 ml agar, was dispensed into 15
× 100 ml plastic petri dishes. One quarter inch Schleicher and
Schuell sterile filter discs were placed on the agar and loaded with 20
microliters of dilutions of test compound including dilutions of 2000 ppm
600 ppm, 200 ppm, 60 ppm, and 20 ppm. The plates were incubated overnight
at 30 degrees centigrade, the inhibition zones measured at 18 hours. All
values were based on 6 tests at a given concentration; each plate was
corrected to an average kill zone due to 20 microliters of neomycin B bas
at a concentration of 30 ppm. Slopes and kill zones for 40 microgramloade
discs were obtained usi ng regression analysis.
as §11, §12, §13

[7] = system: Pseudomonas aeruginosa (ATCC 22853); test: disc inhibition zone, Pseudomonas aeruginosa (Table 1); format: cell-based; details: ATCC22853, read-out: mm inhibition zone due to 40 μgm/disc, organism - Pseudomonas aeruginosa
Method: as §2, §3, §4, §5, §6, §7, §8, §9, §10, §11, §12, §13

[8] = format: physicochemical
[9] = system: E. Coli (ATC 25922); test: disc inhibition zone, E. Coli (Table 1); format: cell-based; details: for zone of inhibition at 40 µg/disc: Escherichia coli, read-out: mm inhibition zone due to 40 μgm/disc, organism - E. Coli; for mm inhibition zone, E. Coli per log concentration antibiotic: slope, 2000 and 200 ppm
Method: as §2, §3, §4, §5, §6, §7, §8, §9, §10, §11, §12, §13

[10] = system: superoxide free radicals; test: block of nitro-blue tetrazolium (NBT) reduction by superoxide; format: biochemical; details: photoreduced riboflavin or xanthine-xanthine oxidase; 560 nm; unactivated aminoglycosides
Source text: as §1
This is spectrophotometrically monitored at 560 nm, where the maximum absorbance of reduced NBT occurs. This procedure decreases in sensitivity at pH's higher than 7.0 and at very high (millimolar) drug concentrations. The reason for these limits is that superoxide reacts with aminoglycosides to generate a reducing compound which can interfere with the assay by directly reducing NBT.

[11] = system: Pseudomonas maltophilispp.; test: disc inhibition zone, Pseudomonas maltophilia (Table 1); format: cell-based; details: read-out: mm inhibition zone due to 40 μgm/disc, organism - Pseudomonas maltophilispp.
Method: as §2, §3, §4, §5, §6, §7, §8, §9, §10, §11, §12, §13

| Compound | hydroxyl free radical spin-adduct formation [2] | potency enhancement of mixture of activated compound and parent compound [3] | potency after coincubation with irradiated riboflavin vs riboflavin-free parent solution [3] | IC50 [4] | relative molar ratio for 50% inhibition [4] | B/A Molar ratio (epinephrine molarity / molarity for 50% inhibition) [4] | NBT reduction rate / blockade [10] | further results |
| --- | --- | --- | --- | --- | --- | --- | --- | --- |
| Catalase |  |  |  |  |  |  |  | effect on bacterial killing by aminoglycosides (gentamicin, kanamycin) [1]: Catalase blockade occurs alone |
| [H]/N=C(/N)N[C@H]1[C@H](O)[C@@H](O)[C@H](O[C@@H]2O[C@@H](C)[C@](O)(C=O)[C@H]2O[C@@H]2O[C@@H](CO)[C@H](O)[C@@H](O)[C@@H]2NC)[C@@H](N/C(N)=N\[H])[C@@H]1O [streptomycin sulfate] | prevented in a concentration-dependent manner |  |  |  |  |  |  |  |
| NC[C@@H]1O[C@H](O[C@H]2[C@@H](O)[C@H](O[C@@H]3[C@@H](O)[C@H](N)C[C@H](N)[C@H]3O[C@H]3O[C@H](CN)[C@@H](O)[C@H](O)[C@H]3N)O[C@@H]2CO)[C@H](N)[C@@H](O)[C@@H]1O [NM, neomycin] |  | 100% | enhanced potency | 2100 ± 140 µM | ~2 | 0.39 |  |  |
| NC[C@@H]1O[C@H](O[C@H]2[C@@H](O)[C@H](O[C@@H]3[C@@H](O)[C@H](N)C[C@H](N)[C@H]3O[C@H]3O[C@H](CN)[C@@H](O)[C@H](O)[C@H]3N)O[C@@H]2CO)[C@H](N)[C@@H](O)[C@@H]1O [NMb, Neomycin B base] |  |  |  |  |  |  | the rate of NBT reduction is slowed proportionally to the concentration of aminoglycoside | zone of inhibition at 40 µg/disc [5]: 17.2 mm; mm inhibition zone, S. aureus per log concentration antibiotic [5]: 6.1 mm per log concentration; zone of inhibition at 40 µg/disc [6]: 23.3 mm; mm inhibition zone, B. subtilis per log concentration antibiotic [6]: 5.6 mm per log concentration; zone of inhibition at 40 µg/disc [7]: 10.7 mm; solubility in DMSO [8]: DMSO- insoluble; zone of inhibition at 40 µg/disc [9]: 14.9 mm; mm inhibition zone, E. Coli per log concentration antibiotic [9]: 5.5 mm per log concentration; zone of inhibition at 40 µg/disc [11]: 8.3 mm |
| NC[C@H]1O[C@H](O[C@H]2[C@H](O)[C@@H](O[C@H]3O[C@H](CO)[C@@H](O)[C@H](N)[C@H]3O)[C@H](N)C[C@@H]2N)[C@H](O)[C@@H](O)[C@@H]1O [KM, kanamycin] |  | 25% | enhanced potency | 700 ± 100 µM | ~ 6 | 1.11 | the rate of NBT reduction is slowed proportionally to the concentration of aminoglycoside | epinephrine autoxidation blocked ([4]; fourfold molar excess of KM): 97% |
| gentamicin [GM] |  | 167% | enhanced potency | 4400 ± 460 µM | ~1 | 0.19 | the rate of NBT reduction is slowed proportionally to the concentration of aminoglycoside |  |
| NC[C@@H]1O[C@H](O[C@H]2[C@@H](O)[C@H](O[C@@H]3[C@@H](O)[C@H](N)C[C@H](N)[C@H]3O[C@H]3O[C@H](CN)[C@@H](O)[C@H](O)[C@H]3N)O[C@@H]2CO)[C@H](N)[C@@H](O)[C@@H]1O [neoomycin B sulfate, neomycin B sulfate] | prevented in a concentration-dependent manner |  |  |  |  |  |  |  |
| [H]/N=C(/N)N[C@H]1[C@H](O)[C@@H](O)[C@H](O[C@@H]2O[C@@H](C)[C@](O)(C=O)[C@H]2O[C@@H]2O[C@@H](CO)[C@H](O)[C@@H](O)[C@@H]2NC)[C@@H](N/C(N)=N\[H])[C@@H]1O [SM, streptomycin] |  | 18% | enhanced potency | 740 ± 100 µM | ~ 6 | 1.08 |  |  |
| NC[C@H]1O[C@H](O[C@H]2[C@H](O)[C@@H](O[C@H]3O[C@H](CO)[C@@H](O)[C@H](N)[C@H]3O)[C@H](N)C[C@@H]2N)[C@H](O)[C@@H](O)[C@@H]1O [kanamycin sulfate] | prevented in a concentration-dependent manner |  |  |  |  |  |  |  |
| NC[C@H]1O[C@H](O[C@H]2[C@H](O)[C@@H](O)[C@H](N)C[C@@H]2N)[C@H](N)[C@@H](O)[C@@H]1O [Neomycin A base (neamine), Neomycin A base] |  |  |  |  |  |  |  | zone of inhibition at 40 µg/disc [5]: 29.8 mm; mm inhibition zone, S. aureus per log concentration antibiotic [5]: 9.4 mm per log concentration; zone of inhibition at 40 µg/disc [6]: 33.8 mm; mm inhibition zone, B. subtilis per log concentration antibiotic [6]: 7.0 mm per log concentration; zone of inhibition at 40 µg/disc [7]: 0 mm; zone of inhibition at 40 µg/disc [9]: 24.7 mm; mm inhibition zone, E. Coli per log concentration antibiotic [9]: 7.8 mm per log concentration; zone of inhibition at 40 µg/disc [11]: 0 mm |
